Tests used:
[1] = test system: HIV-1 (X4-tropic HIV-1 variant (HIV-1LAI)); assay: Dose-response of RT activity in HIV-1 infected H9 cells; assay type: cell-based; conditions: H9 cells infected with HIV-1LAI; for RT activity / infectivity, dose response: 0, 1, 5, 10, 25 or 50 μM
Procedure: To evaluate the efficacy of Vif inhibitor 1 on RT activity, a dose-response experiment was conducted in infected H9 cells.
Briefly, H9 cells plated at 2×10^5 per well in a 24 well plate were treated overnight with DMSO, plus 0, 1, 5, 10, 25 or 50 μM Vif inhibitor 1 (all at 0.5% DMSO) then infected with HIV-1 (X4-tropic HIV-1 variant (HIV-1LAI)) at 2×10^5 cpm RT per well. All cells were maintained in the presence of DMSO or Vif inhibitor 1 for 14-21 days and viral replication monitored by measurement of reverse transcriptase activity in culture supernatants every second day. Calculation of % relative infectivity was determined on day 7, which was previously determined to be the peak of viral infectivity. Range correction involved fitting cpm data to a 2 parameter equation where the lower limit is 0, i.e. background correction, and the upper data limit is 100, i.e. the data is range corrected. Grafit software was used for the curve fit and calculation of the I.C.50 value.

Vif [2] = biological target: T1, Vif (Human immunodeficiency virus type 1 group M subtype B, UniProt P12504); assay: Western blot of Vif in transfected 293T cell lysates; assay type: cell-based, HIV-1; conditions: 293T cells, pNL-Luc-E-R-, pVSV-G, APOBEC3G-HA; 3.125-50 μM; 24 hours post-drug
T1 construct: pNL4-3 (Vif) was used at 50 fmol, and APOBEC3G at 15 fmol; expressed in transfected cells
T1 sequence (P12504 whole entry): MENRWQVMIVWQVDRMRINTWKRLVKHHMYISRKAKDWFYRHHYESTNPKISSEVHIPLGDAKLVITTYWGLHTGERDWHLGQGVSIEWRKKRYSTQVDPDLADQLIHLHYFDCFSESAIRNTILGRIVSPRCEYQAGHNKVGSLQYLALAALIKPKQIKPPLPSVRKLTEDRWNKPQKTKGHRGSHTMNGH
Procedure: (§1) To determine the effect of Vif inhibitor 1 on expression of Vif and APOBC3G, 293T cells were transfected with pNL-Luc-E-R-, pVSV-G, and 15 fmoles APOBEC3G-HA. 4 hours post-transfection, the cells were treated with 3.125, 6.25, 12.5, 25, 50 μM Vif inhibitor 1 or DMSO equivalent as a control. Twenty-four hours post-drug addition, 293T total cell lysates (15 ug) were prepared, and protein lysates examined for APOBEC3G, Vif and, cyclin T1.

APOBEC3G [3] = assay: Western blot of APOBEC3G in transfected 293T cell lysates; assay type: cell-based, human; conditions: 293T cells, pNL-Luc-E-R-, pVSV-G, APOBEC3G-HA; 3.125-50 μM; 24 hours post-drug
Procedure: as §1

pNL-Luc-E-R- virus = assay: Infectivity of virus from treated producer cells on 293T cells; assay type: cell-based, HIV-1; conditions: 293T cells infected 48 hours with 1 ng virus; producer cells treated with 3.125-50 μM
Procedure: Infectivity was determined by infecting 293T cells for 48 hours with 1 ng virus produced from the producer cells in the experiments shown in FIG. 21A. The infectivity of the sample of virus produced without APOBEC3G was normalized to 100%, and data was representative of three independent experiments.

APOBEC3G [4] = assay: APOBEC3G-HA level co-expressed with pNL4-3-LucE-R-, Western blot; assay type: cell-based, human; conditions: 3.75, 7.5, 15 or 30 fmoles APOBEC3G-HA; 5 uM
Procedure: (§2) To evaluate the effect of Vif inhibitor 1 on levels of APOBEC3G and APOBEC3F proteins, a dose-response experiment was performed. pNL4-3-LucE-R- was co-expressed with 3.75, 7.5, 15, or 30 fmoles APOBEC3G-HA (or APOBEC3F-HA) in the absence (DMSO) or presence (5 uM) of Vif inhibitor 1. The pNL4-3-LucE-R- ΔVif with the same amounts of APOBEC3G or F in the presence of DMSO were used as controls. APOBEC3G or APOBEC3F expression was confirmed by Western blot using an α HA anti body, with cyclin T1 used as the internal control.

APOBEC3F = assay: APOBEC3F-HA level co-expressed with pNL4-3-LucE-R-, Western blot; assay type: cell-based; conditions: 3.75, 7.5, 15 or 30 fmoles APOBEC3F-HA; 5 uM
Procedure: as §2

Vif [5] = biological target: T1, Vif; assay: Vif protein levels in H9 cells infected with pNL4-3Luc-E-R-; assay type: cell-based, HIV-1; conditions: 12.5, 25 or 50 μM, 48 hours
Procedure: To evaluate the effect of Vif inhibitor 1 on levels of Vif protein, H9 cells were infected with pNL4-3Luc-E-R- using a spinoculation procedure with the virus equivalent of 1 μg pNL4-3 Luc-E-R- or Δ Vif pNL4-3 Luc-E-R- (as measured using p24 ELISA). […] H9 total cell lysates were then prepared, and 20 μg of lysate examined for the presence of cyclin T1, endogenous APOBEC3G, p24, and Vif, the latter two indicative of virus infection.

Vif [6] = biological target: T1, Vif; assay: Vif protein levels in H9 versus MT4 cells infected with pNL4-3Luc-E-R-; assay type: cell-based, HIV-1; conditions: 50 μM; 48 hours
Procedure: To determine whether there was a difference in the effect of Vif inhibitor 1 on Vif protein levels in permissive versus non-permissive cells, H9 and MT4 cells were infected using a spinoculation procedure with the virus equivalent of 1 μg pNL4-3 Luc-E-R- or Δ Vif pNL4-3 Luc-E-R- (as measured using p24 ELISA). Immediately following infection, H9 or MT4 cells were washed and incubated in complete RPMI medium with 10% FCS containing DMSO (0.5%) or 50 μM Vif inhibitor 1 (also 0.5% DMSO) for 48 hours. H9 or MT4 total cell lysates were then prepared, and 20 μg of lysate was examined for the presence of cyclin T1, endogenous APOBEC3G, p24, and Vif, the latter two being indicative of virus infection.

pNLA1-YFP (Vif activity) = biological target: T2, pNLA1-YFP (Vif activity) (Human immunodeficiency virus type 1 group M subtype B, UniProt P69723); assay: pNLA1-YFP fluorescence in transfected 293T cells; assay type: cell-based, HIV-1; conditions: 3.125-50 μM, with or without 15 fmoles pAPOBEC3G-HA, 24 hours
T2 construct: YFP; expressed in transfected cells; host or cells: 293T cells
T2 sequence (P69723 whole entry): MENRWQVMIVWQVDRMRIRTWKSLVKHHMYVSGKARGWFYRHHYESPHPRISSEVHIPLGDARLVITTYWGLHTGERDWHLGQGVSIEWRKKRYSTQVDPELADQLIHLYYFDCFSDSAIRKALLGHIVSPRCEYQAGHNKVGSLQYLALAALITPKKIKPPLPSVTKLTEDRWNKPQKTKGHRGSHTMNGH
Procedure: 293T cells transfected with 50 fmoles pNLA1-YFP or pNLA1-YFP with 15 fmoles pAPOBEC3G-HA were treated 4 HRS post-transfection with 3.125, 6.25, 12.5, 25, 50 μM Vif inhibitor 1 or DMSO equivalent (0). Twenty-four hours post-drug addition, 293T total cell lysates were prepared and normalized to equal protein amounts prior to being monitored, in triplicate, for YFP fluorescence. Curve fits for full dose responses of Vif inhibitor 1 are shown, and calculation of “% Vif activity” for concentration of compound Vif inhibitor 1 was determined using Grafit software.

COc1ccccc1NC(=O)c1ccccc1Sc1ccc([N+](=O)[O-])cc1 [Vif inhibitor 1, 2-(4-Nitrophenylthio)-N-(2-methoxyphenyl)benzamide]
RT activity / infectivity, dose response [1]: inhibits RT activity in a dose dependent manner
RT activity / infectivity, dose response ([1]; listed as Vif Inhibitor 1): dose-dependent decrease in infectivity
IC50 ([1]; Human immunodeficiency virus 1, 168 h, 0-50 μM, determined on day 7, read-out: I.C.50 of RT activity (% relative infectivity)): ~6.4 µM
Vif expression (Vif [2]): decreases Vif expression
APOBEC3G expression (APOBEC3G [3]): increases APOBEC3G expression
Infectivity of virus produced from treated producer cells (pNL-Luc-E-R- virus): decrease infectivity in a dose-dependent manner
APOBEC3G level (APOBEC3G [4]): increases
APOBEC3F level (APOBEC3F): increases
Levels of Vif protein in H9 cells (Vif [5]): significantly reduces levels of Vif protein
Levels of Vif protein, non-permissive H9 versus permissive MT4 cells (Vif [6]): significantly reduces levels of Vif protein in non-permissive H9 cells compared to permissive MT4 cells
pNLA1-YFP fluorescence (% Vif activity) (pNLA1-YFP (Vif activity)): dose-dependent decrease in pNLA1-YFP only in the presence of APOBEC3G
